One data set is described as follows: in vitro. The format is in vitro ADME. The settings on record: isolated enzyme chymotrypsin, pH 7.8. The procedure:
Peptide stability was evaluated by modifying previously described procedures. , The assays were performed in human serum and in the presence of proteolytic enzymes such as trypsin and chymotrypsin. For human serum stability, 2 mM peptide stock solutions were prepared in water and mixed with human serum (from male AB plasma, USA origin, sterile-filtered, Merck/Sigma-Aldrich, USA) to obtain a final concentration of 200 μM [human plasma/stock solution (9:1, v/v)]. The mixtures were incubated at 37 ± 1 °C, and 50 μL aliquots were taken at predetermined time intervals (0, 1, 2, 4, 8, and 24 h). Protease activity was quenched by adding 100 μL of acetonitrile (MeCN). The resulting cloudy suspensions were cooled to 4 °C for 30 min and centrifugated at 12,000 rpm for 10 min to remove the serum proteins. Then, the supernatants were analyzed by analytical HPLC (Shimadzu Nexera Liquid Chromatograph LC-30AD) which was equipped with a Phenomenex Kinetex reversed-phase column (C18, 5 μm, 100 Å, 150 mm × 4.6 mm) with a flow rate of 1 mL/min using a gradient of MeCN (0.1% TFA) in water (0.1% TFA), from 10 to 70% over 15 min, and UV detection at 220 nm. For enzyme stability, each peptide peptide (200 μM) was incubated with trypsin (0.5 μM) in PBS 1× (pH 7.2) or with chymotrypsin (0.005 μM) in Tris–HCl (100 mM, pH 7.8). Samples (50 μL) were collected at 0, 1, 2, 4, and 24 h, quenched with 0.5% TFA in water, and analyzed by HPLC under chromatographic conditions as described above. All experiments were conducted in triplicate. The percentage of intact peptides at each time point was determined by integrating the corresponding HPLC peak areas.

The nature of the next data set: circular dichroism. The settings on record: water; pH ns; 25 °C; 150 uM. For orientation: CD spectra are sensitive to the conformation of chiral molecules.
In the next data set the test system is S. aureus ATCC 25923. The experiment in a line: microbe, parasite or virus in culture. Format: cell-based. The settings on record: ATCC 25923. An outline of the steps:
(§1)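 MH broth, inoculum 2 × 10^6 cell/mL from mid-log culture; 37 °C incubation; MIC = three identical readings, four independent expts.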

The next data set concerns B. megaterium BM11. The experiment in a line: microbe, parasite or virus in culture. The format is cell-based. To be noted: BM11. In a few lines:
as §1

The next data set has as its system E. coli ATCC 25922. The experiment in a line: microbe, parasite or virus in culture. The format is cell-based. To be noted: ATCC 25922. An outline of the steps: as §1
The next data set relates to E. faecalis ATCC 29212. The experiment in a line: microbe, parasite or virus in culture. The format is cell-based. The settings on record: ATCC 29212. An outline of the steps:
as §1

The subject of the next data set is P. aeruginosa PAO1. Kind of data set: microbe, parasite or virus in culture. To be noted: PAO1. The format is cell-based. In a few lines:
as §1

Another data set deals with S. agalactiae ATCC 27591. The experiment in a line: microbe, parasite or virus in culture. The format is cell-based. The settings on record: ATCC 27591. An outline of the steps:
as §1

In data set [1] the test system is S. epidermidis ATCC 12228. The experiment in a line: microbe, parasite or virus in culture. The format is cell-based. The settings on record: ATCC 12228. In a few lines:
as §1

Data set [2] concerns P. aeruginosa ATCC 27853. The experiment in a line: microbe, parasite or virus in culture. Format: cell-based. To be noted: ATCC 27853. In a few lines:
as §1

The next data set relates to E. coli D21. The experiment in a line: microbe, parasite or virus in culture. The format is cell-based. The settings on record: D21. An outline of the steps: as §1
A further data set concerns A. baumannii ATCC 19606. Kind of data set: microbe, parasite or virus in culture. Format: cell-based. The settings on record: ATCC 19606. In a few lines:
as §1

Data set [3] has as its system P. aeruginosa ATCC 27853. Format: cell-based. The procedure:
The ability of peptides to alter the bacterial membrane permeability of planktonic cells of S. aureus ATCC 25923 and P. aeruginosa ATCC 27853 was determined by the Sytox Green assay. Approximately 1 × 10^6 cells in 100 μL of PBS were combined with 1 μM Sytox Green in the dark for 5 min. The fluorescence intensity was monitored using a microplate reader (Infinite M200, Tecan), with excitation and emission at λ = 485 and 535 nm, respectively. Peptides were added (time = 0) at three different concentrations (i.e., 3.12, 6.25, and 12.5 μM). Increase in the fluorescence intensity is due to the binding of the dye to intracellular nucleic acids. Controls consisted of cells that were not exposed to the peptides. The values correspond to one representative experiment out of three independent experiments.

The procedure of data set [4]: The fusogenic ability of peptides was studied performing the lipid mixing experiment and evaluating a reduction in the fluorescence energy transfer efficiency between fluorophores 12-(N-methyl-N-(7-nitrobenz-2-oxa-1,3-diazol-4-yl)) (NBD) and Rhodamine (Rho) bound to liposomes. We prepared unlabeled LUVs mimicking Gram-positive and Gram-negative membranes at a concentration of 0.16 mM, and labeled LUVs mimicking Gram-positive and Gram-negative membranes with 0.6% mol of NBD-PE and 0.6% mol of Rho-PE at the concentration of 0.04 mM. LUVs were prepared as described above, and for the experiment, unlabeled and labeled LUVs were mixed at a 1:4 ratio to have final lipid concentration of 0.1 mM. The fusogenic activity of each peptide was evaluated at lipide/peptide ratio of 0.01, 0.03, 0.05, 0.1, 0.2, 0.3, 0.5, and NBD emission at 530 nm and Rho emission at 590 nm were recorded setting an NBD excitation wavelength set at 465 nm.
The percentage of fusion was calculated as a function of 100% value corresponding to complete mixing of LUVs upon the addition of Triton X-100 (0.05% v/v). The percentage fusion was calculated as [F530/F590]peptide−[F530/F590]blank/[F530/F590]triton−[F530/F590]blank×100 where F 530 and F 590 are the fluorescence intensities at 530 and 590 nm calculated in the absence and in the presence of the peptide and Triton X-100.

Molecules are shown by their SMILES. Converted amounts (≈) assume the structure as drawn. Read-outs that look alike come from different tables or passages of the source. Bridge positions count the residues as written; N and C are the ends. Square brackets hold non-standard residues; d marks the D form. Peptide text beside a SMILES is read from it.

The fraction remaining is what is left of the initial amount, in per cent.

In the case of `CC[C@H](C)[C@H](NC(=O)[C@H](CCCNC(=N)N)NC(=O)[C@H]1CCC(=O)NCCCC[C@H](NC(=O)[C@H](Cc2ccccc2)NC(=O)[C@H](Cc2c[nH]c3ccccc23)NC(=O)[C@@H]2CCCN2C(=O)[C@@H](NC(=O)[C@@H](N)Cc2ccccc2)C(C)C)C(=O)N[C@@H](CCCCN)C(=O)N[C@@H](Cc2ccccc2)C(=O)N[C@H](CC(C)C)C(=O)N1)C(=O)N[C@@H](CC(C)C)C(N)=O` [Peptide 2, FVPWF[KKFle]RIL] (H-FVPWFKKF[dL][dE]RIL-NH2; lactam 6-10), in “in vitro”, the fraction remaining at 4 h, 200 μM was about 20%. This molecule also yielded a helicity in “circular dichroism” of 7%. Besides, the MIC against S. aureus ATCC 25923 turned out to be 12.5 µM (≈ 21.3 µg/mL); in the data set on B. megaterium BM11, 0.78 µM (≈ 1.33 µg/mL); in the data set with E. coli ATCC 25922, 6.25 µM (≈ 10.7 µg/mL); in the data set with E. faecalis ATCC 29212 it was 25 µM (≈ 42.6 µg/mL); with P. aeruginosa PAO1 it was 50 µM (≈ 85.2 µg/mL); against S. agalactiae ATCC 27591 it was 3.12 µM (≈ 5.32 µg/mL). Further, the MIC in data set [1] is 3.12 µM (≈ 5.32 µg/mL); in the data set on P. aeruginosa ATCC 27853 [2], 50 µM (≈ 85.2 µg/mL); against E. coli D21 it was 12.5 µM (≈ 21.3 µg/mL); against A. baumannii ATCC 19606, 6.25 µM (≈ 10.7 µg/mL). In addition, in the data set with P. aeruginosa ATCC 27853 [3], the “membrane permeabilization, Sytox Green fluorescence (in words)” value is listed as “lower intensity”. Further, the fusion in data set [4] (LUVs DOPG:CL, P/L ratio of 0.3) amounted to 100%; in data set [4] (LUVs DOPG:DOPE:CL, P/L ratio of 0.5) it was 75%.

The values above are taken from PMC12703733, “Probing Guanidino Pendant or Bridged Groups in Cyclic Antimicrobial Peptides Derived from Temporin L: A Strategy to Improve Efficacy against Gram-Negative Bacteria” (Journal of Medicinal Chemistry, 2025).
